Measured values as given in US8093274B2, “Inhibitors of protein prenyltransferases” (The Regents of the University of California, priority 2006, dated 2012).
Values belong to the molecule of their own block, whether it stands above or below them.

Tests used:
[1] = biological target: GGTase I (substrate K-Ras4B) (Homo sapiens, UniProt P49354+P53609); experiment: GGTase I filter-binding assay with K-Ras4B as substrate; format: biochemical; conditions: 50 μM compound; DMSO = 100%; smaller numbers indicate better inhibition; first number of pair; read-out: % activity of GGTase I for protein K-Ras4B in the presence of the compound
Method: (§1) The pilot library was screened for inhibitors of protein geranylgeranyltransferase type I. Protein prenyltransferase assays were carried out by using filter binding. Two different substrates, RhoA and K-Ras4B, were used for the assay. RhoA ends with the CaaL motif and is an exclusive substrate for GGTase I, while K-Ras4B ends with the CaaX motif and is modified by both GGTase I and FTase.
(§2) The % activity of GGTase I was determined as follows: a working solution that contained each compound in DMSO at the concentration of 1 mM was prepared. The working solution was added to GGTase I reaction mixture so that the final concentration of the compound is 50 μM. GGTase I activity was assayed by incubating [^3H]GGPP with K-Ras4B or RhoA protein in the presence of GGTase I and examining radioactivity incorporated into the substrate protein by spotting onto a filter paper. After washing with TCA, ethanol and acetone, the radioactivity retained on the filter was determined by the use of a scintillation counter. GGTase I activity in the presence of DMSO was taken as a 100% value and the activity in the presence of the compound was shown as percent activity compared with the 100% value. […] For 6-aryl-4-mercapto-N-sulfonyl-piperidine-3-carboxylic acid 11 the 4-mercapto substituent appeared critical to endowing GGTase inhibitory activity. […] 4-Chlorobenzylthio substituent was the next best; 12 compounds out of 21 containing the 4-chlorobenzylthio moiety were active. 4-Benzylthio substituent was also good; 7 piperidines out of 21 bearing 4-benzylthio group were active. […] 19 imines (C15>C12=C41>C40>C01=C11>C05=C10=C30=C35=C37=C38>C02, C03, C04, C06, C39=C43) out of 21 appeared in the GGTIs. […] This corresponds to 47 6-aryl-4-mercapto-N-sulfonyl-piperidine-3-carboxylic acids out of 357 compounds.
(§3) A collection of 138 heterocycles was screened for their ability to inhibit the activity of human GGTase-I to geranylgeranylate K-Ras4B or RhoA. Purified GGTase-1 was incubated with its substrate protein K-Ras4B or RhoA, [^3H]GGPP, and the 138 compounds. After 30 min, the degree of incorporation of tritiated geranylgeranyl groups was measured using a scintillation counter.

[2] = biological target: GGTase I (substrate RhoA) (Homo sapiens, UniProt P49354+P53609); experiment: GGTase I filter-binding assay with RhoA as substrate; format: biochemical; conditions: 50 μM compound; DMSO = 100%; smaller numbers indicate better inhibition; second number of pair; read-out: % activity of GGTase I for protein RhoA in the presence of the compound
Method: as §1, §2, §3
The GGTase-I assay was carried out using RhoA as a substrate protein, GGTase-I (JENA Bioscience) and [3H]geranylgeranyl pyrophosphate. Incubation was for 30 min at 37 C. GGTase-H (or RabGGTase) assay was carried out using YPT1 as a substrate protein, GGTase-H (Calbiochem, San Diego, Calif.) plus REP1 (Calbiochem) and [3H]geranylgeranyl pyrophosphate. Incubation was for 30 min at 37 C. FIGS. 20D-20F show the three dimensional structure of GGTase I (D), FTsse (E) and GGTase II (F) which can be obtained from X-ray diffraction studies of protein crystals.

SMILES: COc1ccc([C@H]2C(C(=O)O)=C[C@@H](C(C)(C)C)N2S(=O)(=O)c2ccc(C)cc2)cc1OC
activity at 50 µM [1]: 23.4%
activity at 50 µM [2]: 6.1%

SMILES: Cc1ccccc1S(=O)(=O)N1C(c2ccc(Cl)cc2)CC=C(C(=O)O)[C@@H]1c1cccc(Br)c1 (stereo partly drawn)
activity at 50 µM [1]: 10.6%
activity at 50 µM [2]: 8.8%

SMILES: Cc1cccc([C@H]2C(C(=O)O)=CCC(c3ccc(Cl)cc3)N2S(=O)(=O)c2ccccc2C)c1 (stereo partly drawn)
activity at 50 µM [1]: 15.6%
activity at 50 µM [2]: 12.4%

SMILES: Cc1ccc(S(=O)(=O)N2C(c3ccc(Cl)c(Cl)c3)CC=C(C(=O)O)[C@@H]2c2cccc(C)c2)cc1 (stereo partly drawn)
activity at 50 µM [1]: 12.6%
activity at 50 µM [2]: 10.3%

SMILES: Cc1ccccc1S(=O)(=O)N1C(c2ccc(Cl)cc2)CC=C(C(=O)O)[C@@H]1c1cccc(F)c1 (stereo partly drawn)
activity at 50 µM [1]: 5.4%
activity at 50 µM [2]: 3%

SMILES: Cc1ccccc1S(=O)(=O)N1C(c2ccc(Cl)cc2)CC=C(C(=O)O)[C@@H]1c1ccccc1F (stereo partly drawn)
activity at 50 µM [1]: 8.4%
activity at 50 µM [2]: 4.1%

SMILES: Cc1ccccc1S(=O)(=O)N1C(c2ccc(Cl)cc2)CC=C(C(=O)O)[C@@H]1c1ccc(F)cc1 (stereo partly drawn)
activity at 50 µM [1]: 15.6%
activity at 50 µM [2]: 12.6%

SMILES: Cc1ccc(S(=O)(=O)N2C(c3ccc(Cl)c(Cl)c3)CC=C(C(=O)O)[C@@H]2c2ccc(Cl)cc2)cc1 (stereo partly drawn)
activity at 50 µM [1]: 17.7%
activity at 50 µM [2]: 12.1%

SMILES: Cc1ccc([C@H]2C(C(=O)O)=CCC(c3ccc(Cl)c(Cl)c3)N2S(=O)(=O)c2ccc(C)cc2)cc1 (stereo partly drawn)
activity at 50 µM [1]: 12.4%
activity at 50 µM [2]: 15.6%

SMILES: Cc1ccc(S(=O)(=O)N2C(c3cccc(Br)c3)CC=C(C(=O)O)[C@@H]2c2cccc(Br)c2)cc1 (stereo partly drawn)
activity at 50 µM [1]: 9.4%
activity at 50 µM [2]: 3.7%

SMILES: Cc1ccc(S(=O)(=O)N2C(c3cccc(Cl)c3)CC=C(C(=O)O)[C@@H]2c2cccc(Br)c2)cc1 (stereo partly drawn)
activity at 50 µM [1]: 11%
activity at 50 µM [2]: 7%

SMILES: Cc1ccc(S(=O)(=O)N2C(c3cccc(Br)c3)CC=C(C(=O)O)[C@@H]2c2cccc(Cl)c2)cc1 (stereo partly drawn)
activity at 50 µM [1]: 9.8%
activity at 50 µM [2]: 7.9%

SMILES: Cc1ccc(S(=O)(=O)N2C(c3cccc(Cl)c3)CC=C(C(=O)O)[C@@H]2c2cccc(Cl)c2)cc1 (stereo partly drawn)
activity at 50 µM [1]: 43.7%
activity at 50 µM [2]: 6%

SMILES: Cc1ccc(S(=O)(=O)N2C(c3cccc(Br)c3)CC=C(C(=O)O)[C@@H]2c2cccc(C)c2)cc1 (stereo partly drawn)
activity at 50 µM [1]: 16.1%
activity at 50 µM [2]: 14.3%

SMILES: Cc1ccc(S(=O)(=O)N2C(c3cccc(Br)c3)CC=C(C(=O)O)[C@@H]2c2cccc(F)c2)cc1 (stereo partly drawn)
activity at 50 µM [1]: 17%
activity at 50 µM [2]: 15%

SMILES: Cc1ccc(S(=O)(=O)N2C(c3cccc(Br)c3)CC=C(C(=O)O)[C@@H]2c2ccccc2)cc1 (stereo partly drawn)
activity at 50 µM [1]: 35.2%
activity at 50 µM [2]: 19.4%

SMILES: O=C(O)C1=CCC(c2ccc(Cl)cc2)N(S(=O)(=O)c2ccc(Cl)cc2)[C@H]1c1cccc(Br)c1 (stereo partly drawn)
activity at 50 µM [1]: 8.6%
activity at 50 µM [2]: 5%

SMILES: Cc1ccc(C2CC=C(C(=O)O)[C@H](c3cccc(Br)c3)N2S(=O)(=O)c2ccc(Cl)cc2)cc1 (stereo partly drawn)
activity at 50 µM [1]: 8.4%
activity at 50 µM [2]: 7.4%

SMILES: CC[C@@H]1[C@@H](SCCC(=O)OC(C)(C)C)[C@@H](C(=O)O)[C@H](c2ccc(Cl)c(Cl)c2)N1S(=O)(=O)c1ccc(C)cc1
activity at 50 µM [1]: 27.2%
activity at 50 µM [2]: 7.6%

SMILES: Cc1ccc(S(=O)(=O)N2[C@H](CC3CCCC3)[C@@H](SCCC(=O)OC(C)(C)C)[C@@H](C(=O)O)[C@@H]2c2ccc(Cl)c(Cl)c2)cc1
activity at 50 µM [1]: 16.1%
activity at 50 µM [2]: 7.3%

SMILES: Cc1ccccc1S(=O)(=O)N1[C@H](CC2CCCC2)[C@@H](SCCC(=O)OC(C)(C)C)[C@@H](C(=O)O)[C@@H]1c1ccc(Cl)cc1
activity at 50 µM [1]: 10%
activity at 50 µM [2]: 7.8%

SMILES: CCC[C@@H]1[C@@H](SCCC(=O)OC(C)(C)C)[C@@H](C(=O)O)[C@H](c2ccc(Cl)cc2)N1S(=O)(=O)c1ccc(Cl)cc1
activity at 50 µM [1]: 21.7%
activity at 50 µM [2]: 9.2%

SMILES: CC(C)(C)OC(=O)CCS[C@H]1[C@@H](C(=O)O)[C@H](c2ccc(Cl)cc2)N(S(=O)(=O)c2ccc(Cl)cc2)[C@@H]1CC1CCCC1
activity at 50 µM [1]: 22.5%
activity at 50 µM [2]: 9.8%

SMILES: CC(C)(C)OC(=O)CCS[C@H]1[C@@H](C(=O)O)[C@H](c2ccc(Cl)cc2)N(S(=O)(=O)c2ccccc2)[C@@H]1CC1CCCC1
activity at 50 µM [1]: 30.4%
activity at 50 µM [2]: 9.7%

SMILES: Cc1ccc(S(=O)(=O)N2[C@H](CC3CCCC3)[C@@H](SCCC(=O)OC(C)(C)C)[C@@H](C(=O)O)[C@@H]2c2cccc(Cl)c2)cc1
activity at 50 µM [1]: 20.6%
activity at 50 µM [2]: 5.6%

SMILES: CCCC[C@@H]1[C@@H](Sc2ccc(C)cc2)[C@@H](C(=O)O)[C@H](c2cccc(F)c2)N1S(=O)(=O)c1ccc(C)cc1
activity at 50 µM [1]: 31.5%
activity at 50 µM [2]: 7.1%

Second part, the molecule after the results:

activity at 50 µM [1]: 21.4%
activity at 50 µM [2]: 9.6%
SMILES: C=CCS[C@H]1[C@@H](C(=O)O)[C@H](c2ccc(Cl)c(Cl)c2)N(S(=O)(=O)c2ccc(C)cc2)[C@@H]1CCCC

activity at 50 µM [1]: 10.9%
activity at 50 µM [2]: 1.1%
SMILES: CCC[C@@H]1[C@@H](Sc2ccc(OC)cc2)[C@@H](C(=O)O)[C@H](c2ccc(Cl)c(Cl)c2)N1S(=O)(=O)c1ccc(C)cc1

activity at 50 µM [1]: 15.1%
activity at 50 µM [2]: 6.8%
SMILES: C=CCS[C@H]1[C@@H](C(=O)O)[C@H](c2ccc(Cl)c(Cl)c2)N(S(=O)(=O)c2ccc(C)cc2)[C@@H]1CCCCCC

activity at 50 µM [1]: 12.1%
activity at 50 µM [2]: 8.6%
SMILES: C=CCS[C@H]1[C@@H](C(=O)O)[C@H](c2ccc(Cl)c(Cl)c2)N(S(=O)(=O)c2ccc(C)cc2)[C@@H]1CC1CCCC1

activity at 50 µM [1]: 28.4%
activity at 50 µM [2]: 8.9%
SMILES: C=CCS[C@H]1[C@@H](C(=O)O)[C@H](c2ccc(Cl)cc2)N(S(=O)(=O)c2ccccc2C)[C@@H]1CCC

activity at 50 µM [1]: 23.1%
activity at 50 µM [2]: 8.4%
SMILES: C=CCS[C@H]1[C@@H](C(=O)O)[C@H](c2ccc(Cl)cc2)N(S(=O)(=O)c2ccccc2C)[C@@H]1CCCC

activity at 50 µM [1]: 24.9%
activity at 50 µM [2]: 6%
SMILES: C=CCS[C@H]1[C@@H](C(=O)O)[C@H](c2ccc(Cl)cc2)N(S(=O)(=O)c2ccccc2C)[C@@H]1CCCCCC

activity at 50 µM [1]: 22.4%
activity at 50 µM [2]: 4.9%
SMILES: C=CCS[C@H]1[C@@H](C(=O)O)[C@H](c2ccc(Cl)cc2)N(S(=O)(=O)c2ccccc2C)[C@@H]1CC1CCCC1

activity at 50 µM [1]: 48.7%
activity at 50 µM [2]: 8%
SMILES: COc1ccc(S[C@H]2[C@@H](C(=O)O)[C@H](c3ccc(Cl)cc3)N(S(=O)(=O)c3ccc(Cl)cc3)[C@@H]2C(C)C)cc1

activity at 50 µM [1]: 23.1%
activity at 50 µM [2]: 9.3%
SMILES: C=CCS[C@H]1[C@@H](C(=O)O)[C@H](c2ccc(C#N)cc2)N(S(=O)(=O)c2ccc(C)cc2)[C@@H]1C(C)C

activity at 50 µM [1]: 21.5%
activity at 50 µM [2]: 6%
SMILES: C=CCS[C@H]1[C@@H](C(=O)O)[C@H](c2ccc(C#N)cc2)N(S(=O)(=O)c2ccc(C)cc2)[C@@H]1CCCCCC

activity at 50 µM [1]: 9.8%
activity at 50 µM [2]: 7.5%
SMILES: C=CCS[C@H]1[C@@H](C(=O)O)[C@H](c2ccc(Br)cc2)N(S(=O)(=O)c2ccc(C)cc2)[C@@H]1CCC

activity at 50 µM [1]: 15.5%
activity at 50 µM [2]: 5.5%
SMILES: C=CCS[C@H]1[C@@H](C(=O)O)[C@H](c2ccc(Br)cc2)N(S(=O)(=O)c2ccc(C)cc2)[C@@H]1CCCCCC

activity at 50 µM [1]: 25.5%
activity at 50 µM [2]: 6.5%
SMILES: CC[C@@H]1[C@@H](Sc2ccc(OC)cc2)[C@@H](C(=O)O)[C@H](c2cccc(Cl)c2)N1S(=O)(=O)c1ccc(C)cc1

activity at 50 µM [1]: 22.3%
activity at 50 µM [2]: 8.1%
SMILES: C=CCS[C@H]1[C@@H](C(=O)O)[C@H](c2ccc(OC)c(OC)c2)N(S(=O)(=O)c2ccc(C)cc2)[C@@H]1CCCCCC

activity at 50 µM [1]: 25.2%
activity at 50 µM [2]: 7.7%
SMILES: C=CCS[C@H]1[C@@H](C(=O)O)[C@H](c2ccc(Cl)cc2)N(S(=O)(=O)c2ccc(C)cc2)[C@@H]1CC1CCCC1

activity at 50 µM [1]: 31.7%
activity at 50 µM [2]: 6.1%
SMILES: C=CCS[C@H]1[C@@H](C(=O)O)[C@H](c2ccc(C(C)C)cc2)N(S(=O)(=O)c2ccc(C)cc2)[C@@H]1CC1CCCC1

activity at 50 µM [1]: 14.7%
activity at 50 µM [2]: 4.1%
SMILES: CCC[C@@H]1[C@@H](Sc2ccc(C)cc2)[C@@H](C(=O)O)[C@H](c2cccc(F)c2)N1S(=O)(=O)c1ccc(C)cc1

activity at 50 µM [1]: 23.5%
activity at 50 µM [2]: 7.1%
SMILES: CCCCCS[C@H]1[C@@H](C(=O)O)[C@H](c2cccc(F)c2)N(S(=O)(=O)c2ccc(C)cc2)[C@@H]1CCCC
